# Measurements as given in ChEMBL document CHEMBL1201862, “PubChem BioAssay data set” (2004).
# The source made the active and inactive calls. For most assays here, no stated cut-off is given here; in the data, actives have a measured EC50 and inactives only a lower limit.
# Legend:
# [1] = biological target: T1, Calpain-2 catalytic subunit (Sus scrofa, UniProt P43367); experiment: m-calpain protease blockers, concentration series – biochemical, fluorogenic peptide substrate, dose response (AID 1420); type: functional
# T1 sequence (P43367 whole entry): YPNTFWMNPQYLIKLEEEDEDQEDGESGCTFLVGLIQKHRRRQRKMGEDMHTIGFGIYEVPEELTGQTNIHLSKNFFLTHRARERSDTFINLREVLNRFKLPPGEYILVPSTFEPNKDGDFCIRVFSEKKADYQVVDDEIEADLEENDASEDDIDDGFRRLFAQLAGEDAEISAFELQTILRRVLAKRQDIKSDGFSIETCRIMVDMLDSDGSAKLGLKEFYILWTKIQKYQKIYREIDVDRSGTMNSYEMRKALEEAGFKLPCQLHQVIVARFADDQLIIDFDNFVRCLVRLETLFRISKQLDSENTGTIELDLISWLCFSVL
# H9c2 = experiment: cells; type: functional, cell-based; conditions: Rattus norvegicus, H9c2, Myocardium;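 further: confirmatory concentration-response retest of ultra-high-throughput screening hits for modulation of myocardial damage; cell death induced by hydrogen peroxide oxidative stress; compound pretreatment for 60 min then peroxide exposure for 2 h; potency is for protecting the cells against peroxide damage rather than for killing them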
# [2] = biological target: T2, Rac GTPase-activating protein 1 (Homo sapiens, UniProt Q9H0H5); experiment: blockers of MgcRacGAP-driven Rac1 GTP hydrolysis – biochemical, ADP Hunter fluorescence, primary and confirmatory, confirmation (AID 624330); type: functional
# T2 sequence (Q9H0H5 whole entry): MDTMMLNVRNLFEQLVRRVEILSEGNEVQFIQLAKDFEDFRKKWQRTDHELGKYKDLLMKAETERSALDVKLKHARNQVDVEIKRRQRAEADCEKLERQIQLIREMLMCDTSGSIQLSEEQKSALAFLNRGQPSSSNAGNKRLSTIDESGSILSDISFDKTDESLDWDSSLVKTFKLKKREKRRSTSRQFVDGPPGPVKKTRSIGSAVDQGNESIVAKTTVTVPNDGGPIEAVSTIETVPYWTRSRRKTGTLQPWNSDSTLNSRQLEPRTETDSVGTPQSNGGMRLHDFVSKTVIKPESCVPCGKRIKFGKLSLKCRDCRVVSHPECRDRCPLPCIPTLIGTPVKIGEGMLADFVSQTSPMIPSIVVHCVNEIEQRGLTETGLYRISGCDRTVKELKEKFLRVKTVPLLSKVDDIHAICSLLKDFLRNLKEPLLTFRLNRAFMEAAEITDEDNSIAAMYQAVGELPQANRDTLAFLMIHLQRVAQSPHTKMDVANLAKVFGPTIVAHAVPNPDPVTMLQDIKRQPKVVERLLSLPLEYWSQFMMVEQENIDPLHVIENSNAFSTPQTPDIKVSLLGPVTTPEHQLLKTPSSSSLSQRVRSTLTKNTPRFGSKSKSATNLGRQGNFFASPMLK
# [3] = biological target: Luciferin 4-monooxygenase (Photinus pyralis, UniProt P08659); experiment: inhibition of purified Photinus pyralis luciferase – biochemical, luminescence, dose response (AID 1891)
# [4] = Luminescence Cell-Based Dose Confirmation HTS to Identify Inhibitors of Platelet Dense Granule Release. [Related pubchem assays: 1663 (Primary HTS), 1678 (Summary of Project)]; type: functional
# [5] = Luminescence Cell-Based Dose Confirmation HTS to Identify Activators of 5'UTR Stem-Loop Driven Alpha-Synuclein mRNA Translation in H4 Neuroglioblastoma Cells. [Related pubchem assays: 1829 (Project Summary), 1814 (Primary HTS)]; type: functional
# [6] = Luminescence Cell-Based Dose Response HTS to Identify Activators of Luciferase Translation or Activity in H4 […] Cells. [Related pubchem assays: 1829 (Project Summary), 1814 (Primary HTS)]; type: functional
# H4 = experiment: Luminescence Cell-Based Dose Response HTS to Identify Activators of 5'UTR Stem-Loop Driven Prion Protein mRNA Translation in H4 Neuroglioblastoma Cells. [Related pubchem assays: 1829 (Project Summary), 1814 (Primary HTS)]; type: functional; conditions: Homo sapiens
# [7] = biological target: T3, Heat shock factor protein 1 (Mus musculus, UniProt P38532); experiment: enhancement of HSF1-driven luciferase signal – cell-based, NIH3T3, luminescence, dose retest, confirmation (AID 435004); type: functional;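 further: stress induced by proteasome inhibitor MG132 added 30 min after compound; luciferase reporter driven by HSF1 response element in NIH3T3 cells; actives raise luminescence as potentiators of the MG132 stress response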
# T3 sequence (P38532 whole entry): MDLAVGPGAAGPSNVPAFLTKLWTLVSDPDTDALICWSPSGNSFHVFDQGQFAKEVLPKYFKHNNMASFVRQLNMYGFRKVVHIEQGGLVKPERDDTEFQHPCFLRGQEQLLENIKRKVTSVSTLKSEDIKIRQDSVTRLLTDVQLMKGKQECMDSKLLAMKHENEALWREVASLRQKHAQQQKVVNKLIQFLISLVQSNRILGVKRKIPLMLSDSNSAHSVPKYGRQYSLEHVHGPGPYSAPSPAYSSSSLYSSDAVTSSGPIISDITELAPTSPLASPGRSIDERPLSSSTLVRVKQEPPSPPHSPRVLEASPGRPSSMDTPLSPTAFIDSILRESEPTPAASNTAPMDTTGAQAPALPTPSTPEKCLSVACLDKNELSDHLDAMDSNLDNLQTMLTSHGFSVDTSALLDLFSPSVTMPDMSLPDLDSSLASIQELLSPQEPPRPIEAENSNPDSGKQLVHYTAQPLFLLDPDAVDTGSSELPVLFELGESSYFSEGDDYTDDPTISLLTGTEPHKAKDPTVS
# [8] = Trypanosoma cruzi growth suppression in host cells – NIH3T3 host cells, beta-gal luminescence, confirmation (AID 2044); type: functional, cell-based;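 further: intracellular parasites grown in NIH/3T3 mouse fibroblasts as host cells; luminescent beta-galactosidase reporter signal from transgenic T. cruzi replicating inside host cells; inhibitors lower the luminescence signal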
# [9] = NIH3T3 cell viability loss – ATP luminescence, mouse fibroblasts, counter-screen, dose response (AID 2010); type: functional, cell-based;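 further: cells exposed to compound for about 90 hours before reading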
# [10] = viability of uninfected HEp-2 cells – cell-based, HTS, cytotoxicity control for RSV inhibitor project, dose response (AID 2410); type: functional; conditions: human respiratory syncytial virus
# Sequence of Luciferin 4-monooxygenase (P08659 whole entry): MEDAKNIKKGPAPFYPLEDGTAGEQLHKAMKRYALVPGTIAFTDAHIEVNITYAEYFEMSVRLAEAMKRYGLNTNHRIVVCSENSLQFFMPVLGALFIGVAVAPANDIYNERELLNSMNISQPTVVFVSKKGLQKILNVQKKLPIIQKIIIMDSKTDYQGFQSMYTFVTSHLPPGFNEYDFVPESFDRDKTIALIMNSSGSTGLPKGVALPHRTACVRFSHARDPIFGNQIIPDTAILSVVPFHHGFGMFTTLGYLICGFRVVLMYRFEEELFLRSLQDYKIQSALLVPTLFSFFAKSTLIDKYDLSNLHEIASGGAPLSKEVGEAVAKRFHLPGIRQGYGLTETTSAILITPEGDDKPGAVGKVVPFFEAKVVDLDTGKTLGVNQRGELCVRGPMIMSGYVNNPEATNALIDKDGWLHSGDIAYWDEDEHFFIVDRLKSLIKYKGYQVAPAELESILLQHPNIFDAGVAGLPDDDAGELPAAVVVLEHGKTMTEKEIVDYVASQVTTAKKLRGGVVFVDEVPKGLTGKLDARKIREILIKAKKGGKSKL
structure (smiles),measurement,setting,value
O=C(NNC(=O)c1cc(OCC(F)(F)F)ccc1OCC(F)(F)F)c1ccc(Cl)c(Cl)c1,IC50,[1],6.1 µM (not active)
Oc1ccc(Br)cc1/C=N/c1ccc2c3c(cccc13)CC2,IC50,H9c2,> 79 µM (inactive)
same,IC50,[2],33.5 µM (active)
O=CNc1cc(-c2ccc(C(=O)NC3CC3)cc2)cn2c(-c3ccccc3)cnc12,IC50,H9c2,> 79 µM (inactive)
CCCCc1c(O)nc(SCC(=O)N2CCOCC2)nc1O,EC50,[3],> 112 µM (not active)
same,EC50,[4],> 112 µM (not active)
CC(C)(C)c1ccc(C(=O)NCc2ccco2)cc1,EC50,[5],20.9 µM (active)
same,EC50,[6],31 µM (active)
same,EC50,H4,13.7 µM (active)
Cc1cccc(NC(=O)CSc2cc(C)c(C#N)c3nc4ccccc4n23)c1,EC50,[7],6.87 µM (active)
COc1ccc(N2CCN(C(=O)Cn3cnc4c(cnn4-c4ccccc4)c3=O)CC2)cc1,IC50,[1],4.18 µM (not active)
COc1cccc(OCCNC(=O)c2cccc(OC)c2)c1,EC50,[3],> 112 µM (not active)
same,EC50,[4],> 112 µM (not active)
O=c1c(Cl)cc(Cl)nn1-c1ccccc1,EC50,[7],24.7 µM (active)
Cc1cccc(-c2cccc(NC(=O)C3CCCN(C(=O)c4cccnc4)C3)c2)c1 (stereo not given),EC50,[7],> 260 µM (inactive)
CC(C)(C)N(NS(=O)(=O)c1ccc(F)cc1)c1ccccc1,EC50,[7],> 260 µM (inactive)
CC(C)(C)n1nc2c(c1NC(=O)c1cc([N+](=O)[O-])ccc1Cl)CS(=O)(=O)C2,EC50,[5],17.8 µM (active)
same,EC50,[6],18.9 µM (active)
same,EC50,H4,> 120 µM (not active)
N#CCCSc1ccccc1NC(=O)c1cc(=O)c2ccccc2o1,IC50,H9c2,19.3 µM (active)
CCN(C(=O)COC(=O)c1cc(-c2cccs2)nc2ccccc12)C1CCS(=O)(=O)C1 (stereo not given),EC50,[3],> 112 µM (not active)
same,EC50,[4],> 112 µM (not active)
Cc1ccc(CN(C)C(=O)COC(=O)CSc2ccc(C(N)=O)cc2[N+](=O)[O-])cc1,IC50,H9c2,> 79 µM (inactive)
Cc1ccc(NC(=O)CNC(=O)c2ccccc2F)cc1Cl,IC50,[1],37.6 µM (not active)
COc1ccc(-c2cc3ccc(OCC(C)=O)cc3oc2=O)cc1,EC50,[7],> 260 µM (inactive)
CCOc1ccc(N(CC(=O)Nc2cccc(OC)c2)S(=O)(=O)c2c(C)noc2C)cc1,IC50,[1],5.86 µM (not active)
Cc1ccc(Nc2c([N+](=O)[O-])nn(-c3ccc4c(c3)OCCO4)[n+]2[O-])c(Cl)c1,EC50,[8],0.199 µM (active)
same,IC50,[1],23.1 µM (not active)
same,EC50,[9],> 60 µM (not active)
O=C1[C@@H]2Cc3c([nH]c4ccccc34)C(c3ccc([N+](=O)[O-])cc3)N2C(=O)CN1C1CC1 (stereo not given in full),EC50,[7],> 260 µM (inactive)
COC(=O)C(Cc1ccc(O)cc1)NC(=O)C12CC3CC(CC(C3)C1)C2 (stereo not given),EC50,[3],> 112 µM (not active)
same,EC50,[4],17.2 µM (active)
Cn1c2ccc(F)cc2c2nnc(NN)nc21,IC50,H9c2,> 79 µM (inactive)
O=C(CSc1n[nH]c(-c2ccccc2)n1)c1ccccc1,EC50,[5],15.3 µM (active)
same,EC50,[6],5.83 µM (active)
same,EC50,H4,6.22 µM (active)
O=c1c2c(-c3cccs3)csc2ncn1-n1cccc1,IC50,[1],> 50 µM (not active)
COc1ccc(OCC(=O)NCc2nnc(O)c3ccccc23)cc1,IC50,H9c2,> 79 µM (inactive)
CCn1c(SCC(=O)N2CCCC(C)C2)nnc1-c1ccco1 (stereo not given),EC50,[3],> 112 µM (not active)
same,EC50,[4],> 112 µM (not active)
c1csc(-c2nn3c(Cn4nnc5ccccc54)nnc3s2)c1,EC50,[3],> 112 µM (not active)
same,EC50,[4],> 112 µM (not active)
CN1CCN(CCCNC(=O)c2cc3c(=O)n(C)c4ccccc4c3s2)CC1,EC50,[5],> 120 µM (not active)
same,EC50,[6],11.7 µM (active)
same,EC50,H4,> 120 µM (not active)
CC(Cc1ccccc1)/[N+]([O-])=C\c1ccc(C(F)(F)F)cc1 (stereo not given),EC50,[5],1.2 µM (active)
same,EC50,[6],6.29 µM (active)
same,EC50,H4,4.53 µM (active)
CN1CCN(c2ccc(NC(=O)COc3ccccc3)cc2Cl)CC1,EC50,[5],0.214 µM (active)
same,EC50,[6],0.229 µM (active)
same,EC50,H4,66.9 µM (active)
COc1ccc(CCNC(=O)C2CCCN(Cc3nc(-c4ccccc4C)oc3C)C2)cc1OC (stereo not given),EC50,[7],> 260 µM (inactive)
N=C(NOC(=O)c1cc(Cl)ccc1Cl)c1ccncc1,EC50,[5],9.04 µM (active)
same,EC50,[6],1.87 µM (active)
same,EC50,H4,28.1 µM (active)
CCOc1cc(/C=C2/SC(=S)N(CC3CCCO3)C2=O)ccc1O (stereo not given),EC50,[7],> 260 µM (inactive)
CCOc1cc(NC(=O)C2CC2)c(OCC)cc1NC(=O)c1ccccn1,IC50,H9c2,12.6 µM (active)
O=C1CN(c2ccccc2)C(=S)N1C(=O)c1ccccc1,EC50,[5],57.7 µM (active)
same,EC50,[6],106 µM (active)
same,EC50,H4,15.7 µM (inconclusive)
COc1cccc(NC(=O)N(C2CCCCC2)C(C)c2cccs2)c1 (stereo not given),IC50,[1],8.59 µM (not active)
Cc1cc(NC(=O)COc2nnc(-c3ccccc3)c3ccccc23)no1,IC50,H9c2,32.3 µM (inactive)
COc1cc2c(c(OC)c1CC=C(C)C)C[C@H](c1ccc(O)cc1O)CO2 [GLYASPERIN D],CC50,[10],15.3 µM (active)
Cc1ccc(NC(=O)c2cc(S(=O)(=O)N3CCOCC3)cn2C)c(C)c1,EC50,[3],> 112 µM (not active)
same,EC50,[4],> 112 µM (not active)
COc1ccccc1[C@@H]1C(c2cccc(Cl)c2)=NN(c2ccccc2)[C@H]1C(=O)N1CCOC1=O,CC50,[10],33.2 µM (active)
CCNc1ccc(S(=O)(=O)N(C)C)cc1NCC(=O)Nc1ccccc1Br,EC50,[7],> 260 µM (inactive)
CC1CCN(C(=S)SCc2nc(N)nc(Nc3ccccc3)n2)CC1,CC50,[10],13.3 µM (active)
O=C(CCc1nc(O)c2ccccc2n1)Nc1ccc(Cl)c(Cl)c1,IC50,H9c2,15.4 µM (active)
CCn1nc(C(=O)OCC(=O)c2c[nH]c3ccccc23)c2ccccc2c1=O,IC50,[1],3.99 µM (not active)
same,IC50,H9c2,> 79 µM (inactive)
C[C@H](NC(=O)c1[nH]cnc1C(=O)N[C@@H](Cc1ccccc1)C(=O)OCc1ccccc1)C(=O)OC(C)(C)C,CC50,[10],24.8 µM (active)
N#Cc1cnc2sc3ccccc3n2c1=N,EC50,[5],15.9 µM (active)
same,EC50,[6],10.6 µM (active)
same,EC50,H4,11.7 µM (active)
CCOc1ccc(C(C(=O)NC2CCCC2)N(C(=O)c2snc(C(N)=O)c2N)c2cccc(O)c2)cc1 (stereo not given),IC50,H9c2,> 79 µM (inactive)
N#Cc1ccc(S(=O)(=O)N2CCCN(c3nc4ccc(Cl)cc4s3)CC2)cc1,CC50,[10],> 50 µM (active)
CCc1nc2c(sc3nc4c(cc32)COC(C)(C)C4)c(=O)n1Cc1ccco1,EC50,[7],> 260 µM (inactive)
CC(=O)Nc1ccc(NC(=O)Cn2nc([N+](=O)[O-])c(Br)c2C)cc1,IC50,[1],11.6 µM (not active)
CN(C(=O)c1ccc(COc2ccccc2Br)o1)c1ccccc1,CC50,[10],22.1 µM (active)
